The values that follow come from article PMC10830420, “Structures, functions and adaptations of the human LINE-1 ORF2 protein” (Nature, 2023).

pIC50: −log10 of the molar value. Where two headings read alike, the source gives them in different places.

The target of assay [1] is T1, ORF2p core (Homo sapiens, UniProt O00370).
T1 construct: His6-MBP-3C-ORF2p (238-1061, ORFeus-Hs) in pET41; His6-MBP (3C protease site) (N, cleaved yes); made in house; host or cells: E. coli
As to the kind of experiment: Homogeneous time-resolved fluorescence (HTRF) ORF2p RT assay. Format: biochemical. Here is the method: (§1) ORF2p core was preincubated with a template:primer containing a single site for the incorporation of a given nucleotide analogue. The primer/template sequence shown in the panel a illustrates the case of single incorporation of 3TC, with a single G for incorporation; the incoming template sequence for entecavir and carbovir has a single C, and for d4T a single A, each at position labeled “N”. Reactions were incubated for one minute at 37 °C with a 100 nM dNTP mixture and increasing concentrations of listed inhibitors. IC50 index, fold = IC50 (drug, µM) ÷ [dNTP] […] Fluorescein-labeled dNTPs (here, uracil-TP) are incorporated by ORF2p into a biotinylated primer, here shown against a poly(A) template. Detection is then achieved using FRET with a terbium cryptate labeled streptavidin, and the time-resolved technique and time-delayed emission from terbium cryptate reduces background from other fluorescent chemicals in the mix. In the presence of ORF2p RT inhibitors (RTIs), base incorporation is stopped and FRET signal is lost. […]
(§2) ORF2p reverse transcriptase activity assays […]
For HTRF RT assays157, 25 nM ORF2p core and 12. 5 nM t em plat e: primer was incubated at 25°C for 60 minutes
with 10 nM of fluorescein- 12- dUTP (Thermo), 1 µM each (dATP,dCTP,dGTP), and test compound in a 15 µL
reaction with buffer containing 50 mM Tris-HCl, 50 mM KCl, 10 mM MgCl2, 10 mM DTT, pH 8.1, and 1% final

Assay [2] has as its system L1 retrotransposition reporter in HeLa cells. As to the kind of experiment: LINE-1 dual luciferase retrotransposition assay in HeLa cells. The class given is cell-based, human. As to conditions: for pIC50: HeLa cells, stable dual luciferase L1 reporter, normalized to cell viability, n = 3 wells.
In assay [3] the target is T1, ORF2p core. As to the kind of experiment: Gel-based L1 RT assay, ORF2p core, inhibition by NRTI triphosphates. Format: biochemical. As to conditions: 100 nM dNTP mixture; for pIC50: NTP forms of NRTIs, one minute at 37 °C. The protocol:
as §1, §2
Gel-based RT activity assays consisted of pr e-incubating RTs with annealed DNA/RNA, DNA/DNA, or RNA/RNA 5’- end- radiolabeled or 5’-end-Cy5- o r FAM-labeled template:primer duplex or hybrid duplex and, where indicated, inhibitor in the presence of 0.1- 1 μ M dNTP or NTP mixture, 0.25 mM EDTA, 50 mM NaCl, and 25 mM Tris (pH 8) for 10 min at 37°C. Labeled nucleic acids were purchased from Dharmacon or IDT. Unless otherwise indicated, 15 μL reactions were initiated by the addition of 1.3 mM MgCl2, incubated for 10 min at 37 °C, and then stopped by the addition of 15 μL of formamide/EDTA (25 mM) mixture and incubated at 95 °C for 10 min. 3 μL reaction samples were subjected to denaturing 8 M urea 20% PAGE to resolve products followed by signal quantification (ImageQuant 5.2, GE Healthcare Bio- Sciences) through phosphorimaging (Amersham Typhoon 5, Cytivia). Scanned gel images are […]
minor products; original images are provided in an Extended Data file. […]

For assay [4], the system named is interferon production in THP1 cells. Put plainly: Interferon reporter assay in THP1 cells (secreted luciferase). Format: cell-based, human. The protocol: Culture Collection ( AT CC); THP1-Dual and THP1- Dual KO-TREX1 cells were from InvivoGen. All cell lines were maintained at 37 °C and 5% CO2 and validated and tested for mycoplasma. All plasmids and affinity reagents are described in Supplementary Tables 4-5 , respectively and available from Addgene at https://www.addgene.org/browse/article/28243724/. […]
Interferon reporter assay in THP1 cells
The type I interferon response was evaluated using THP1 -Dual and THP1-Dual KO-TREX1 cells (InvivoGen), which secrete a Lucia luciferase reporter gene under control of an interferon- responsive promoter. THP1-Dual KO-TREX1 cell were generated by stable biallelic knock-out of the TREX1 gene. Cell were treated with a dose titration of test compound in the presence of 1 µM 5- aza-2ʹ-deoxycytidine (decitabine, Sigma, #189825), which de- represses LINE-1121. Type 1 Interferon and cell viability were assessed after five days of treatment. QUANTI-LUC solution containing stabilizer was added to the cell supernatant and luminescence was measured on a p la t e reader, and cells were assessed for cell viability using CellTiter-Glo (Promega, #G9683) according to the manufacturer’s instructions.
LINE-1 dual luciferase retrotransposition assay
To assess the potency of inhibiting LINE-1 retrotransposon, a stable clonal dual luciferase L1 reporter cell line was generated and reported as described130,133 in the HeLa Tet-On 3G cell line (Takara, ). SB100x161 was used to integrate pRT006.2, a vector similar to pYX056 130 , which contains a bi-directional Tet-On promoter expressing both control Renilla luciferase and LINE-1 ORFeus-Hs Firefly luciferase antisense intron (AI) r epor t er 79,162. A single cell clone was selected with the highest doxycycline-induced luciferase signal vs baseline. Cells were mixed with compounds and induced for reporter expression with 500 ng/mL doxycycline (Sigma, #D9891) for 72 hours. Luminescence was measured using the Dual-Glo Luciferase Assay System (Promega, #E2940) following the manufacturer’s instructions, and the ratio of Firefly to Renilla Luciferase activity was used to measure […]
Telomerase activity assay
The human telomerase assay was performed with telomerase in MCF- 7 cell lysates using the Telo TAGGG Telomerase PCR ELISAplus kit (Roche). Test compounds (NTPs) were serially diluted in water, mixed with 0.2 µg of M CF- 7 lysate, and pre- incubated at room temperature for 15 minutes. Then the reaction was carried out for 30 minutes, amplified using PCR, and visualized colorimetrically per t he manufacturer’s instructions.
Cells were lysed in ice cold RIPA buffer containing 1x protease inhibitor tablet (Thermo), centrifuged for 10 minutes, and clarified lysates were quantified by BCA assay. […]
Background: Reporter assays use an easily measured gene product as a stand-in for the process of interest.

The target in assay [5] is T2, human telomerase RT (TERT) (Homo sapiens, UniProt O14746).
T2 construct: of human telomerase RT (TERT) by NRTI triphosphates in a biochemical assay in MCF-7 cell lysate; endogenous in cells; host or cells: MCF-7 cell lysate
Put plainly: Telomerase activity assay in MCF-7 cell lysate. Format: biochemical. The note with it: NRTI triphosphates.

Where [6] appears, read: HTRF, NRTIs as triphosphates, n = 3 wells.

T2 sequence (O14746 whole entry): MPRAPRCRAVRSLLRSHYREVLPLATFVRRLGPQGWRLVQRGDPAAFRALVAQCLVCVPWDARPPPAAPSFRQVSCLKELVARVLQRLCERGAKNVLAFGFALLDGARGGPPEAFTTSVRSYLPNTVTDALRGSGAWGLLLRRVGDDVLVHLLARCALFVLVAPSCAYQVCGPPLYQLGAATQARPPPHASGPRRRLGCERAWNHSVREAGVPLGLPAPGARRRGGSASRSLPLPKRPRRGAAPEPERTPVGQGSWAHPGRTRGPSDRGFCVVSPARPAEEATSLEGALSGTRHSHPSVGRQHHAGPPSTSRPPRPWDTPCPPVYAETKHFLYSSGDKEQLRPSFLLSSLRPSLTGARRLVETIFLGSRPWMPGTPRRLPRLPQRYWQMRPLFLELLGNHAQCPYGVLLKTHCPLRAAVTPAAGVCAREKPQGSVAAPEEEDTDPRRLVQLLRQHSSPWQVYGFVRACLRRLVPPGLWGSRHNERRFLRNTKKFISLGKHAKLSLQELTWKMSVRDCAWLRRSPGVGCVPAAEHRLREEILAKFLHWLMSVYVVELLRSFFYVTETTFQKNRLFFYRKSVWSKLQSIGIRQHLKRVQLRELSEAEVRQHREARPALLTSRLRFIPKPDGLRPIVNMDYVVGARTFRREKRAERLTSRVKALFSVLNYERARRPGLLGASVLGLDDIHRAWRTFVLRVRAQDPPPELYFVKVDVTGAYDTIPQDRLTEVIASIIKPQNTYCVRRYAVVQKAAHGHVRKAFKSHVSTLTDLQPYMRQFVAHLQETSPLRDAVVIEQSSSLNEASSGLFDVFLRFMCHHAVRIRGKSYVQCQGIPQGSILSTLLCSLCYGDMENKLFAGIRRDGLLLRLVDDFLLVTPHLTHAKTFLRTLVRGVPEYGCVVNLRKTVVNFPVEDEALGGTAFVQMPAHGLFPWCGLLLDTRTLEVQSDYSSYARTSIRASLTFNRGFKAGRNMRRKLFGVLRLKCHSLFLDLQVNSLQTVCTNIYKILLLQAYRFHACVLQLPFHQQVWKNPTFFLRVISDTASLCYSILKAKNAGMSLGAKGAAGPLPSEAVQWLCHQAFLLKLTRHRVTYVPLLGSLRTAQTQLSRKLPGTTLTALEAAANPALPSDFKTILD

Regarding `Cc1cn([C@H]2C[C@H](N=[N+]=[N-])[C@@H](CO)O2)c(=O)[nH]c1=O` [AZT, zidovudine], the “fold change in ORF2p inhibitory activity compared with ddTTP and d4T” value on ORF2p core [1] is on record as “greater than 20 fold”. Further, the pIC50 – broadly, the IC50 on a negative log10 scale, so that one unit is a factor of ten – against ORF2p core [1] (HTRF, NRTI NTPs) is 6.12 to 6.70; in assay [2] (read-out: IC50) it was 5.74. Turning to `Nc1nc2c(ncn2[C@H]2C=C[C@@H](CO)C2)c(=O)[nH]1` [Carbovir, carbovir], at ORF2p core [3], the “IC50 index, fold = IC50 (drug, µM) ÷ [dNTP] (natural counterpart, 0.1 µM)” value stood at 64 fold and the pIC50 was 5.15 to 5.30. For `CC(C)Nc1cccnc1N1CCN(C(=O)c2cc3cc(NS(C)(=O)=O)ccc3[nH]2)CC1` [Delavirdine, delavirdine], the pIC50 against ORF2p core [1] (setting [6]) was < 4.52.

Take `O=C1Nc2ccc(Cl)cc2[C@@](C#CC2CC2)(C(F)(F)F)O1` [Efavirenz, efavirenz]: the pIC50 on ORF2p core [1] (setting [6]) is < 4.52. Consider `C=C1[C@H](CO)[C@@H](O)C[C@@H]1n1cnc2c(=O)[nH]c(N)nc21` [Entecavir, entecavir], for which, on ORF2p core [3], the “IC50 index, fold = IC50 (drug, µM) ÷ [dNTP] (natural counterpart, 0.1 µM)” value is given as 5.4 fold and the pIC50 was 6.22 to 6.40. With `Cc1cc(C#N)cc(C)c1Oc1nc(Nc2ccc(C#N)cc2)nc(N)c1Br` [Etravirine, etravirine], the pIC50 against ORF2p core [1] (setting [6]) was < 4.52. `Nc1nc(=O)n([C@@H]2CS[C@H](CO)O2)cc1F` [FTC, emtricitabine] showed a negative-log IC50 (pIC50) in assay [2] (Homo sapiens, HeLa) of 5.96. For `O=C(O)P(=O)(O)O` [Foscarnet, foscarnet], the pIC50 at ORF2p core [1] (setting [6]) is < 4.00. Take `Cc1ccnc2c1NC(=O)c1cccnc1N2C1CC1` [Nevirapine, nevirapine]: at ORF2p core [1] (HTRF, 1 mM), the “inhibition of ORF2p” value is listed as “no inhibition”. Further, the figures for the negative-log IC50 (pIC50) (at ORF2p core [1] (setting [6]); in assay [2] (read-out: IC50)) were < 3.00 and < 4.52, respectively. For `Cc1cn(C2C=CC(COP(=O)(OCOC(=O)OC(C)C)OCOC(=O)OC(C)C)O2)c(=O)[nH]c1=O` (stereo not shown) [POC d4T, d4T bis(isopropoxycarbonyloxymethyl)phosphate], in assay [4] (10 µM, THP1 cells, 1 µM decitabine), the “baseline and decitabine-induced IFN production” value is reported as “reduced IFN further”. In assay [4] (TREX1 knockout THP1 cells, 5 days, 1 µM decitabine), the “fold more potent than d4T in suppressing interferon secretion” value is reported as “approximately 30 fold”. In the case of `Cc1cc(/C=C/C#N)cc(C)c1Nc1ccnc(Nc2ccc(C#N)cc2)n1` [Rilpivirine, rilpivirine], at ORF2p core [1] (setting [6]), the pIC50 is < 4.52. As for `CC(C)OC(=O)[C@H](C)N[P@](=O)(OC[C@H]1O[C@@H](n2ccc(=O)[nH]c2=O)[C@](C)(F)[C@@H]1O)Oc1ccccc1` [Sofosbuvir, sofosbuvir], in assay [2], the “inhibition in cell-based L1 assays” value is listed as “no inhibition”. In addition, the pIC50 in assay [2] (Homo sapiens, HeLa) is < 4.00. On to `C[C@H](Cn1cnc2c(N)ncnc21)OCP(=O)(O)O` [Tenofovir, tenofovir], for which the pIC50 in assay [2] (Homo sapiens, read-out: IC50) was 5.49. For the molecule `Cc1cn([C@H]2C=C[C@@H](COP(=O)(O)OP(=O)(O)OP(=O)(O)O)O2)c(=O)[nH]c1=O` [d4T-TP], the pIC50 in assay [5] was 4.82; against ORF2p core [1] (HTRF, NRTI NTPs) it was 8.05. `Cc1cn([C@H]2CC[C@@H](CO)O2)c(=O)[nH]c1=O` [ddT, dideoxythymidine]: at ORF2p core [1] (HTRF, NRTI NTPs), the pIC50 was > 8.00.

Take `Nc1ncn([C@H]2C[C@H](O)[C@@H](CO)O2)c(=O)n1` [decitabine, 5-aza-2ʹ-deoxycytidine]: the “interferon (IFN) production” value in assay [4] (1 µM, THP1 monocytes) is “increased”.
